Source: US11192863B2, “Antiviral compounds and methods” (Biotron Limited, priority 2003, dated 2021)
Entries after “also recorded” stand apart in the source; their conditions may differ. Read-outs that look alike come from different tables or passages of the source.

Tests used:
[1] = molecular target: SARS-CoV E protein (Severe acute respiratory syndrome coronavirus, UniProt P59637); format: cell-based
[2] = molecular target: Vpu protein (Human immunodeficiency virus type 1 group M subtype B, UniProt P05919); conditions: for Vpu Inhibition (score/# of times tested): halo of growth score between zero and six, XL1-blue E. coli with pPL-Vpu, no adenine, 37° C.
Vpu protein, sequence (P05919 whole entry): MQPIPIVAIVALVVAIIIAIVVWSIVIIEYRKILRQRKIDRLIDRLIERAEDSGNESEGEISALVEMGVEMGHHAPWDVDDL

[3] = system: MHV (strain MHV-A59); conditions: L929 cells
[4] = system: MHV (strain MHV-A59); assay: microbe, parasite or virus in culture; conditions: Murine coronavirus, L929, read-out: Percent reduction in Plaque number/# experiments
[5] = molecular target: 229E-CoV E-protein (Human coronavirus 229E, UniProt P19741); assay: Bacterial bio-assay for 229E-CoV E-protein; conditions: halo of growth score; E. coli expressing E protein at 37° C.
229E-CoV E-protein, sequence (P19741 whole entry): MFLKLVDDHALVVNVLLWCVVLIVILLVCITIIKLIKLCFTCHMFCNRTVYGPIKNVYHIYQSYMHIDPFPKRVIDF

[6] = system: human coronavirus OC43; assay: microbe, parasite or virus in culture; format: cell-based; conditions: Betacoronavirus 1, OC43, MRC5, 120 h, MRC-5 cells, 5 days post infection
[7] = system: EAV (strain Bucyrus); assay: EAV plaque reduction assay in BHK-21 cells; format: cell-based; conditions: Equine arteritis virus; EAV plaques in BHK-21 cells
Description: To determine the antiviral activity of compounds against EAV replication (strain Bucyrus; ATCC VR-796), an assay measuring reduction in the number of plaques formed in monolayers of EAV infected BHK-21 cells (ATCC CCL-10) was developed: […] Plates were subsequently incubated at 37° C. […] Plaques were counted in all wells and the percentage reduction in plaque number compared to solvent control was calculated. Measurements were performed in duplicate to quadruplicate wells.

[8] = system: HIV; format: cell-based; conditions: for At least 1x log reduction seen in p24 assay?: Table 19b, yes/no
[9] = molecular target: SARS E protein ion channel (Severe acute respiratory syndrome coronavirus, UniProt P59637); format: biochemical, SARS-CoV
[10] = system: SARS-CoV (Hong Kong strain); format: cell-based, SARS coronavirus; conditions: for Titre (% control): 48 hours; for Average TCID50 (×10^6): 48 hours post infection; for decrease in virus titre: 10 uM
[11] = system: porcine respiratory coronavirus (PRCV) strain AR310; assay: PRCV plaque assay in ST cells; format: cell-based; conditions: Alphacoronavirus 1; PRCV plaques in ST cells
[12] = system: bovine coronavirus (BCV); assay: BCV plaque assay in MDBK cells; format: cell-based; conditions: Betacoronavirus 1; BCV plaques in MDBK cells
[13] = molecular target: 229E E protein ion channel (Human coronavirus 229E, UniProt P19741); assay: 229E E protein ion channel in planar lipid bilayers; format: biochemical; conditions: 100 μM added to the cis chamber; FIG. 10
229E E protein ion channel, sequence (P19741 whole entry): as above
Description: The 229E E synthetic peptide was dissolved in 2,2,2-trifluorethanol (TFE) at 0.05 mg/ml to 1 mg/ml. […] Ionic currents, indicating channel activity in the bilayer, were typically detected within 15-30 min. After channels were detected the holding potential across the bilayer was varied between −100 mV and +100 mV to characterise the size and polarity of current flow and enable the reversal potential to be determined.
To test compounds for their ability to block or otherwise inhibit the ion channel formed by 229E E protein, small aliquots of solutions containing the compounds were added to the aqueous solutions bathing planar lipids in which the peptide channel activity had been reconstituted and the effect of the compound addition on the ionic currents was recorded and measured.
Compound stock solutions were typically prepared at 500 mM in DMSO. This solution was further diluted to 50 mM, or lower concentration in 50% DMSO/50% methanol and 2 μl of the appropriately diluted compound was added to the cis and/or trans chambers to yield the desired final concentration.

[14] = system: Dengue 1 strain Hawaii; assay: Dengue cytoproliferation assay in LLC-MK2 cells (Alamar Blue); format: cell-based, Dengue virus; conditions: 7 days
[15] = Table 19a, rank among 12 compounds, 1 = highest score

SARS-CoV E protein, sequence (P59637 whole entry, looked up): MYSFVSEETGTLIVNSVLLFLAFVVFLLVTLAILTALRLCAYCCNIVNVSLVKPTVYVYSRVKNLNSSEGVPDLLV

For `N=C(N)NC(=O)Cc1cccc2ccccc12` [2-(1-napthyl)acetoylguanidine], the “SARS E protein Inhibition (score/# of times tested)” value (from here on “SARS E protein Inhibition”) [1] was 1.50/1 score, the “Vpu Inhibition (score/# of times tested)” value [2] was 1.56/2 score and the “Percent reduction in Plaque number/# experiments” value (“Percent reduction” for short) ([3]; 1 uM) was 11/1%. The “Percent reduction” value ([3]; 10 uM) was 02/1%, the inhibition at 20 µM [4] was -19% and the “229E E protein Inhibition (score)” value [5] was 0.8 score.

`CC(C)(C)c1ccccc1/C=C/C(=O)NC(=N)N` [2-t-butylcinnamoylguanidine] was tested, and the “SARS E protein Inhibition” value [1] was 1.86/1 score, the inhibition at 2.5 µM [6] was 4% and the IC50 [7] was 1 µM. The “Vpu Inhibition (score/# of times tested)” value [2] was 2.13/2 score, the “Percent reduction” value ([3]; 1 uM) was 37/1% and the “Percent reduction” value ([3]; 10 uM) was 98/2%. For the same compound, the “229E E protein Inhibition (score)” value [5] was 3.9 score.

In the case of `N=C(N)NC(=O)/C=C/c1cccc(C2=CCCCC2)c1` [3-(cyclohex-1-en-1-yl)cinnamoylguanidine], the “SARS E protein Inhibition” value [1] is reported as 3.75/1 score, the “Vpu Inhibition (score/# of times tested)” value [2] is reported as 2.5/2 score and the “Percent reduction” value ([3]; 10 uM) is reported as 2/2%. The inhibition at 1 µM [4] was -19% and the “229E E protein Inhibition (score)” value [5] was 2.4 score.

With `CCCCC/C=C/c1cccc(/C=C/C(=O)NC(=N)N)c1` [3-(trans-hept-1-en-1-yl)cinnamoylguanidine] the “SARS E protein Inhibition” value [1] was 1.71/1 score, the “Vpu Inhibition (score/# of times tested)” value [2] was 0.81/2 score and the inhibition at 1 µM [4] was -6%. For the same compound, the inhibition at 10 µM [4] was 23%.

In the case of `COc1ccc2cc(C(=O)NC(=N)N)ccc2c1` [6-methoxy-2-naphthoylguanidine], the “At least 1x log reduction seen in p24 assay?” value (“At least 1x log reduction seen” below) [8] is reported as “yes”, the “% Reduction of average current by 100 μM” value [9] is reported as 92 ± 16% and the “SARS E protein Inhibition” value [1] is reported as 3.13/3 score. For the same compound, the “Titre (% control)” value ([10]; Compound Concentration 2 uM) was 118 % control, the “Average TCID50 (×10^6)” value ([10]; Compound Concentration 2 uM) was 6.35 ×10^6 and the “Titre (% control)” value ([10]; Compound Concentration 10 uM) was 111 % control. The “Average TCID50 (×10^6)” value ([10]; Compound Concentration 10 uM) was 5.95 ×10^6, the inhibition at 2.5 µM [6] was 47% and the EC50 [11] was 0.04 µM. The EC50 [12] was 9 µM, the “Bacterial assay rank order” value [2, 15] was 5.5 and the “Bacterial assay rank order” value ([2]; Table 19b) was 5.5. The “Vpu Bacterial score” value ([2]; Table 19b) was 2.9, the “Vpu Inhibition (score/# of times tested)” value [2] was 2.9/4 score and the “Percent reduction” value ([3]; 1 uM) was 34/3%. For the same compound, the “Percent reduction” value ([3]; 10 uM) was 56/3%, the “Percent reduction” value ([3]; 20 uM) was 88/3% and the “229E E protein Inhibition (score)” value [5] was 1.4 score.

For `N=C(N)NC(=O)/C=C/c1ccco1` [(2-Furanacryloyl)guanidine], the “SARS E protein Inhibition” value [1] was 0.82/2 score, the “Vpu Inhibition (score/# of times tested)” value [2] was 0.94/2 score and the “Percent reduction” value ([3]; 10 uM) was 63/2%. For the same compound, the “Percent reduction” value ([3]; 20 uM) was 67/2% and the inhibition at 1 µM [4] was -3%.

`N=C(N)NC(=O)/C=C/c1cccc(Br)c1` [(3-Bromocinnamoyl)guanidine] was tested, and the “Percent of Positive Control” value ([8]; Drug Conc. 0.625 μM) was 116%, the “Percent of Positive Control” value ([8]; Drug Conc. 1.25 μM) was 59% and the “Percent of Positive Control” value ([8]; Drug Conc. 2.5 μM) was 9%. The “Percent of Positive Control” value ([8]; Drug Conc. 5 μM) was 1%, the “Percent of Positive Control” value ([8]; Drug Conc. 10 μM) was 3% and the “At least 1x log reduction seen” value [8] was “yes”. The “% Reduction of average current by 100 μM” value [9] was 87 ± 11%, the “SARS E protein Inhibition” value [1] was 3.15/27 score and the inhibition at 2.5 µM [6] was 100%. For the same compound, the EC50 [11] was 11.2 µM, the EC50 [12] was 3 µM and the IC50 [7] was 10 µM. The “Bacterial assay rank order” value [2, 15] was 1, the “Bacterial assay rank order” value ([2]; Table 19b) was 1 and the “Vpu Bacterial score” value ([2]; Table 19b) was 4.3. The “Vpu Inhibition (score/# of times tested)” value [2] was 4.3/24 score, the “Percent reduction” value ([3]; 1 uM) was 39/3% and the “Percent reduction” value ([3]; 10 uM) was 90/3%. For the same compound, the “Percent reduction” value ([3]; 20 uM) was 95/2% and the “229E E protein Inhibition (score)” value [5] was 1.7 score.

For `N=C(NC(=O)CCc1ccccc1)NC(=O)CCc1ccccc1` [N,N′-Bis(3-phenylpropanoyl)guanidine, N,N-Bis(3-phenylpropanoyl)guanidine], the “Vpu Inhibition (score/# of times tested)” value [2] was 0.1/2 score, the “Percent reduction” value ([3]; 10 uM) was 30/4% and the “Percent reduction” value ([3]; 20 uM) was 41/3%. The inhibition at 1 µM [4] was -8% and the “229E E protein Inhibition (score)” value [5] was 0.3 score.

For `N=C(NC(=O)c1ccc2cc(O)ccc2c1)Nc1ccccc1` [N-(6-Hydroxy-2-napthoyl)-N′-phenylguanidine], the “SARS E protein Inhibition” value [1] was 1.35/3 score, the “Vpu Inhibition (score/# of times tested)” value [2] was 2.06/2 score and the “Percent reduction” value ([3]; 10 uM) was 39/1%. For the same compound, the “Percent reduction” value ([3]; 20 uM) was 43/1% and the inhibition at 1 µM [4] was -5%.

`NC(N)=NC(=O)/C=C/c1ccccc1` [cinnamoylguanidine] was tested, and the “At least 1x log reduction seen” value [8] was “yes”, the “E protein ion channel activity (in words)” value [9] was “inhibited; also recorded: significantly reduced” and the “SARS E protein N-terminal peptide channel (in words)” value [9] was “blocked”. For the same compound, the “channels formed by full-length E protein (in words)” value [9] was “blocked”, the “reduction of average current across the bilayer” value [9] was “about 4 fold” and the “average current across the bilayer (in words)” value ([9]; 100 μM) was “reduced to baseline”. For the same compound, the “SARS E protein Inhibition” value [1] was 0.69/3 score, the “decrease in virus titre” value [10] was “approximately 80%” and the “Titre (% control)” value ([10]; Compound Concentration 2 uM) was 82 % control. For the same compound, the “Average TCID50 (×10^6)” value ([10]; Compound Concentration 2 uM) was 4.4 ×10^6, the “Titre (% control)” value ([10]; Compound Concentration 10 uM) was 24 % control and the “Average TCID50 (×10^6)” value ([10]; Compound Concentration 10 uM) was 1.3 ×10^6. The “current flow through the 229E E ion channel (in words)” value [13] was “greatly reduced current flow”, the inhibition at 2.5 µM [6] was 57% and the EC50 [11] was 0.08 µM. The EC50 [12] was 42 µM, the “Antiviral Percent of Negative Control” value ([14]; Drug Conc. 0.625 μM) was 76.6% and the “Antiviral Percent of Negative Control” value ([14]; Drug Conc. 1.25 μM) was 72.6%. The “Antiviral Percent of Negative Control” value ([14]; Drug Conc. 2.5 μM) was 58.3%, the “Antiviral Percent of Negative Control” value ([14]; Drug Conc. 5 μM) was 38.6% and the “Antiviral Percent of Negative Control” value ([14]; Drug Conc. 10 μM) was 17.1%. The “Bacterial assay rank order” value [2, 15] was 4, the “Bacterial assay rank order” value ([2]; Table 19b) was 4 and the “Vpu Bacterial score” value ([2]; Table 19b) was 3.0. The “Vpu Inhibition (score/# of times tested)” value [2] was 2.96/12 score, the “Percent reduction” value ([3]; 1 uM) was 52/7% and the “Percent reduction” value ([3]; 10 uM) was 88/8%. The “Percent reduction” value ([3]; 20 uM) was 97/8% and the “229E E protein Inhibition (score)” value [5] was 1.3 score.

With `N=C(N)NC(=O)/C=C/c1cccc2ccccc12` [trans-3-(1-napthyl)acryloylguanidine] the “At least 1x log reduction seen” value [8] was “yes”, the “% Reduction of average current by 100 μM” value [9] was 66 ± 2% and the “SARS E protein Inhibition” value [1] was 3.38/2 score. For the same compound, the “reduction in virus titre” value ([10]; 2 μM) was “approximately 50%”, the “decrease in virus titre” value [10] was “approximately 80%” and the “Titre (% control)” value ([10]; Compound Concentration 2 uM) was 46 % control. The “Average TCID50 (×10^6)” value ([10]; Compound Concentration 2 uM) was 2.45 ×10^6, the “Titre (% control)” value ([10]; Compound Concentration 10 uM) was 22 % control and the “Average TCID50 (×10^6)” value ([10]; Compound Concentration 10 uM) was 1.15 ×10^6. For the same compound, the inhibition at 2.5 µM [6] was 100%, the EC50 [11] was 19.1 µM and the EC50 [12] was 13 µM. The IC50 [7] was 7.5 µM, the “Antiviral Percent of Negative Control” value ([14]; Drug Conc. 0.625 μM) was 77.7% and the “Antiviral Percent of Negative Control” value ([14]; Drug Conc. 1.25 μM) was 73.7%. For the same compound, the “Antiviral Percent of Negative Control” value ([14]; Drug Conc. 2.5 μM) was 38.7%, the “Antiviral Percent of Negative Control” value ([14]; Drug Conc. 5 μM) was 12.4% and the “Antiviral Percent of Negative Control” value ([14]; Drug Conc. 10 μM) was 6.8%. For the same compound, the “Bacterial assay rank order” value [2, 15] was 5.5, the “Bacterial assay rank order” value ([2]; Table 19b) was 5.5 and the “Vpu Bacterial score” value ([2]; Table 19b) was 2.9. The “Vpu Inhibition (score/# of times tested)” value [2] was 2.9/3 score, the “Percent reduction” value ([3]; 1 uM) was 34/3% and the “Percent reduction” value ([3]; 10 uM) was 86/3%. The “Percent reduction” value ([3]; 20 uM) was 95/2% and the “229E E protein Inhibition (score)” value [5] was 3.7 score.
